In ChEMBL document CHEMBL4699662, “Identification and structure-activity relationship studies of small molecule inhibitors of the human cathepsin D” (Bioorg Med Chem, 2021):

What was measured:
in vitro [1] = conditions: human, liver microsomes
in vitro [2] = conditions: mouse, liver microsomes
[3] = target: Cathepsin D (Homo sapiens) (UniProt P07339); conditions: dose 182.0 nM, time 130.0 min
Sequence of Cathepsin D (Homo sapiens) (P07339 65-162 limits assumed): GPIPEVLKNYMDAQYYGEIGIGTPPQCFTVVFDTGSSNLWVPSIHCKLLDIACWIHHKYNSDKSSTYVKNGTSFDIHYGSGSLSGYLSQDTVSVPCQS
Sequence of Cathepsin D (Homo sapiens) (P07339 169-412 limits assumed): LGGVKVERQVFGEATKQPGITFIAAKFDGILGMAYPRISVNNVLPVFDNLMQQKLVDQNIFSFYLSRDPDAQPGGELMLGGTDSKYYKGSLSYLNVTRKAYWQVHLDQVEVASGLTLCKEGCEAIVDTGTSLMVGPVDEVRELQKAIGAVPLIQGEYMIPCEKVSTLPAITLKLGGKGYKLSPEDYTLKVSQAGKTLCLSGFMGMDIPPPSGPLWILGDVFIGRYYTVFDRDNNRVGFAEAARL

Compound | microsomal CLint at 0.5 h, 1 µM (in vitro [1]) [µL/min/mg] | microsomal CLint at 0.5 h, 1 µM (in vitro [2]) [µL/min/mg] | inhibition [3] [%]
Cc1ccc(S(=O)(=O)N(C)C)cc1NC(=O)[C@@H](CC1CCCCC1)NC(=N)NC(=O)Cc1cccc(C#N)c1 | 287 | 250 | –
CNS(=O)(=O)c1ccc(C)c(NC(=O)[C@H](NC(=N)NC(=O)Cc2ccc(OC)c(OC)c2)c2ccccc2)c1 | 281 | 270 | –
Cc1ccc(S(=O)(=O)N(C)C)cc1NC(=O)[C@@H](CC1CCCCC1)NC(=N)NC(=O)C1CCCc2ccccc21 (some centres not stated) | 237 | 259 | –
Cc1ccc(S(=O)(=O)N(C)C)cc1NC(=O)[C@@H](CC1CCCCC1)NC(=N)NC(=O)Cc1ccc(F)c(F)c1 | 163 | 264 | –
Cc1ccc(S(=O)(=O)N(C)C)cc1NC(=O)[C@@H](CC1CCCCC1)NC(=N)NC(=O)Cc1ccc2ccccc2c1 | 169 | 200 | –
COc1ccc(CC(=O)NC(=N)N[C@H](CC2CCCCC2)C(=O)Nc2cc(N(S(C)(=O)=O)S(C)(=O)=O)ccc2C)cc1OC | 186 | 165 | –
Cc1ccc(S(=O)(=O)N(C)C)cc1NC(=O)[C@@H](CC1CCCCC1)NC(=N)NC(=O)Cc1ccc(C(F)(F)F)cc1 | 291 | 282 | –
CC(C)CC(=O)N[C@H](C(=O)N[C@H](C(=O)N[C@@H](CC(C)C)[C@@H](O)CC(=O)N[C@@H](C)C(=O)N[C@@H](CC(C)C)[C@@H](O)CC(=O)O)C(C)C)C(C)C | – | – | 98.7
CNS(=O)(=O)c1ccc(C)c(NC(=O)[C@H](NC(=N)NC(=O)Cc2ccc(OC)c(OC)c2)C2CCCCC2)c1 | 211 | 173 | –
CNS(=O)(=O)c1ccc(C)c(NC(=O)[C@@H](CC2CCCCC2)NC(=N)NC(=O)Cc2ccc(OC)c(Cl)c2)c1 | 295 | 273 | –
CNS(=O)(=O)c1ccc(C)c(NC(=O)[C@@H](CC2CCCCC2)NC(=N)NC(=O)Cc2ccc(S(C)(=O)=O)cc2)c1 | 241 | 208 | –
Cc1ccc(S(=O)(=O)N(C)C)cc1NC(=O)[C@@H](CC1CCCCC1)NC(=N)NC(=O)Cc1ccccc1C(F)(F)F | 208 | 244 | –
Cc1ccc(S(=O)(=O)N(C)C)cc1NC(=O)[C@@H](CC1CCCCC1)NC(=N)NC(=O)Cc1cc(C(F)(F)F)cc(C(F)(F)F)c1 | 246 | 258 | –

Next, values leading:

microsomal CLint at 0.5 h, 1 µM (in vitro [1]) [µL/min/mg] | microsomal CLint at 0.5 h, 1 µM (in vitro [2]) [µL/min/mg] | inhibition [3] [%] | Compound
176 | 180 | – | CNS(=O)(=O)c1ccc(C)c(NC(=O)[C@H](CC2CCCCC2)NC(=N)NC(=O)Cc2ccc(OC)c(OC)c2)c1
22.5 | 15.5 | – | COc1ccc(CC(=O)NC(=N)N[C@H](CO)C(=O)Nc2cc(S(N)(=O)=O)ccc2C)cc1OC
264 | 260 | – | COc1ccc(CC(=O)NC(=N)N[C@H](Cc2cccs2)C(=O)Nc2cc(S(N)(=O)=O)ccc2C)cc1OC
40 | 100 | – | COc1ccc(CC(=O)NC(=N)N[C@@H](C(=O)Nc2cc(S(N)(=O)=O)ccc2C)C2CC2)cc1OC
64.3 | 174 | – | COc1ccc(CC(=O)NC(=N)N[C@@H](C(=O)Nc2cc(S(N)(=O)=O)ccc2C)C(C)C)cc1OC
134 | 220 | – | CNS(=O)(=O)c1ccc(C)c(NC(=O)[C@@H](C)NC(=N)NC(=O)Cc2ccc(OC)c(OC)c2)c1
262 | 297 | – | COc1ccc(CC(=O)NC(=N)N[C@H](CCSC)C(=O)Nc2cc(S(N)(=O)=O)ccc2C)cc1OC
177 | 177 | – | CNS(=O)(=O)c1ccc(C)c(NC(=O)[C@@H](CC2CCCCC2)NC(=N)NC(=O)Cc2ccc(OC)c(OC)c2)c1
191 | 193 | – | COc1ccc(CC(=O)NC(=N)N[C@H](Cc2ccccc2)C(=O)Nc2cc(S(N)(=O)=O)ccc2C)cc1OC
55.1 | 118 | – | CC[C@@H](NC(=N)NC(=O)Cc1ccc(OC)c(OC)c1)C(=O)Nc1cc(S(N)(=O)=O)ccc1C
215 | 231 | – | CCCC[C@@H](NC(=N)NC(=O)Cc1ccc(OC)c(OC)c1)C(=O)Nc1cc(S(N)(=O)=O)ccc1C
